Assays:
[1] = system: PD1-ss+10aa/Gaussia Luciferase; experiment: Dox-Induced PD1-ss-Gluc Assay; assay type: cell-based; conditions: 24 hr Dox induction; 293FRT/TO cells; mean; read-out: 24 hr Dox Inducible PD1ssGluc 293FRT/TO: Mean IC50
How it was run: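 Doxycycline-induced expression of a PD1-ss+10aa/Gaussia luciferase reporter is measured in stable Flp-In 293 T-REx cells. Compound dilutions containing doxycycline are added one day after plating and incubated at 37 °C, 5% CO2. Values for unassigned stereocentres refer to stereoisomer mixtures.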

[2] = system: TNFα-FL/Gaussia Luciferase; experiment: Dox Induced TNFα-FL-Gluc Assay; assay type: cell-based; conditions: for IC50: 24 hr Dox induction, 293FRT/TO cells, mean, read-out: 24 hr Dox Inducible TNFaFLGluc 293FRT/TO: Mean IC50; for 24 hr Dox Inducible TNFaFLGluc 293FRT/TO: TNF/PD1: ratio of TNFaFLGluc IC50 to PD1ssGluc IC50, '<=>' given where both are I.A.
How it was run: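 Hygromycin/blasticidin-selected Flp-In 293 T-REx cells, TNFα-FL/Gaussia luciferase fusion under T-REx control; overnight plating, then compound in DMSO/media with doxycycline at 37 °C, 5% CO2; stereo-undefined structures tested as mixtures.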

[3] = system: HER3-ss+4aa/Gaussia Luciferase; experiment: Dox-Induced Her3-ss-Gluc Assay; assay type: cell-based; conditions: 24 hr Dox induction; 293FRT/TO cells; mean; read-out: 24 hr Dox Inducible Her3(ss + 4)Gluc 293FRT/TO: Mean IC50
How it was run: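 Doxycycline-inducible HER3 signal sequence+4aa/Gaussia luciferase construct, stably integrated in Flp-In 293 T-REx cells; compound dilutions applied with doxycycline at 37° C., 5% CO2.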

[4] = system: IL-2-FL/Gaussia Luciferase; experiment: Dox Induced IL2-FL-Gluc Assay; assay type: cell-based; conditions: for IC50: 24 hr Dox induction, 293FRT/TO cells, mean, read-out: 24 hr Dox Inducible IL2FLGluc 293FRT/TO: Mean IC50; for 24 hr Dox Inducible IL2FLGluc 293FRT/TO: IL2/PD1: ratio of IL2FLGluc IC50 to PD1ssGluc IC50, '<=>' given where both are I.A.
How it was run: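 A hygromycin- and blasticidin-resistant 293 T-REx clone carrying inducible IL-2–Gaussia luciferase (full-length IL-2, residues 1-153) serves as the cell system. After overnight plating, the cells get test compounds together with doxycycline in DMSO/media and are incubated at 37° C, 5% CO2.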

[5] = system: multiple myeloma cell line NCI-H929; experiment: H929 Cell Viability Assay; assay type: cell-based, human; conditions: Homo sapiens, NCI-H929, 48 h, NCI-H929 cells, Celltiter-Glo
How it was run: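 A 48-hour compound treatment of cells in 10% FBS RPMI medium was followed by luciferase-based viability quantification.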

[6] = system: multiple myeloma cell line U266B1; experiment: U266 Cell Viability Assay; assay type: cell-based, human; conditions: Homo sapiens, U-266, 48 h, U266B1 cells, Celltiter-Glo
How it was run: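 After growth in serum-supplemented RPMI 1640, cells received serially diluted compound in DMSO/media and were kept 48 hours before a CellTiter-Glo luminescence readout.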

[7] = Liver Microsome Stability Assay (rat); conditions: rat liver microsomes, with NADPH, 1.0 uM compound
Method: (§1) Stability of a compound was assessed in the presence of liver microsomes from various sources—mouse, rat, monkey and human liver microsomes. 1.0 uM compound, 0.4% DMSO in 0.1 M Potassium Phosphate with 1.0 mg/mL liver microsomes, were incubated at 37° C. with or without 1 mM NADPH. The samples were quenched at 0, and 30 minutes.

[8] = Liver Microsome Stability Assay (mouse); conditions: mouse liver microsomes, with NADPH, 1.0 uM compound
Method: as §1

[9] = Liver Microsome Stability Assay (human); conditions: human liver microsomes, with NADPH, 1.0 uM compound
Method: as §1

[10] = Liver Microsome Stability Assay (monkey); conditions: monkey liver microsomes, with NADPH, 1.0 uM compound
Method: as §1

| SMILES | IC50 [1] [µM] | IC50 [2] [µM] | IC50 [3] [µM] | IC50 [4] [µM] | EC50 [5] [µM] | EC50 [6] [µM] | Liver Microsome Stability (Multiple Species): Rat - % Remaining after 30 min w/NADPH [7] [%] | Liver Microsome Stability (Multiple Species): Mouse - % Remaining after 30 min w/NADPH [8] [%] | Liver Microsome Stability (Multiple Species): Human - % Remaining after 30 min w/NADPH [9] [%] | Liver Microsome Stability (Multiple Species): Monkey - % Remaining after 30 min w/NADPH [10] [%] | 24 hr Dox Inducible TNFaFLGluc 293FRT/TO: TNF/PD1 [2] | 24 hr Dox Inducible IL2FLGluc 293FRT/TO: IL2/PD1 [4] |
| --- | --- | --- | --- | --- | --- | --- | --- | --- | --- | --- | --- | --- |
| CC(C)n1cnc(/C=C/c2csc(NC(=O)c3cccn3CC3CCOCC3)n2)c1 [Compound D7, (E)-N-(4-(2-(1-isopropyl-1H-imidazol-4-yl)vinyl)thiazol-2-yl)-1-((tetrahydro-2H-pyran-4-yl)methyl)-1H-pyrrole-2-carboxamide] | 2.83 | > 25 | > 25 | > 25 | > 25 | > 25 | 2.55 | 0.56 | 0.04 | 0.07 | >8.84 | >8.8 |
| Cc1ccnc(/C=C/c2csc(NC(=O)c3cccn3Cc3ccncc3)n2)c1 [Compound E1, (E)-N-(4-(2-(4-methylpyridin-2-yl)vinyl)thiazol-2-yl)-1-(pyridin-4-ylmethyl)-1H-pyrrole-2-carboxamide] | 0.154 | > 25 | 4.13 | 22.1 | 23.9 | > 25 | 0.33 | 0.33 | 0.57 | 0.53 | >163 | 140 |
| O=C(Nc1nc(C#Cc2ccccn2)cs1)c1cccn1Cc1ccncc1 [Compound E3, N-(4-(pyridin-2-ylethynyl)thiazol-2-yl)-1-(pyridin-4-ylmethyl)-1H-pyrrole-2-carboxamide] | 0.798 | > 25 | 7.18 | 13.1 | > 25 | > 25 | 0.35 | 2.41 | 0.35 | 0.6 | >31.3 | 16 |
| O=C(Nc1nc(CCC2CCCCO2)cs1)c1cccn1Cc1ccncc1 (stereo not drawn) [Compound E6, 1-(pyridin-4-ylmethyl)-N-(4-(2-(tetrahydro-2H-pyran-2-yl)ethyl)thiazol-2-yl)-1H-pyrrole-2-carboxamide] | 0.208 | 6.04 | 1.28 | 1.78 | 24.2 | > 25 | 0.75 | 1.82 | 0.67 | 0.57 | 29.1 | 8.6 |
| O=C(Nc1nc(CC2CCCCO2)cs1)c1cccn1Cc1ccncc1 (stereo not drawn) [Compound E9, 1-(pyridin-4-ylmethyl)-N-(4-((tetrahydro-2H-pyran-2-yl)methyl)thiazol-2-yl)-1H-pyrrole-2-carboxamide] | 0.775 | 19.5 | 3.92 | 3.64 | > 25 | > 25 | 4.69 | 19 | 0.86 | 2.42 | 25.1 | 4.7 |

Now from value to molecule, other results behind:

| IC50 [1] [µM] | IC50 [2] [µM] | IC50 [3] [µM] | IC50 [4] [µM] | EC50 [5] [µM] | EC50 [6] [µM] | Liver Microsome Stability (Multiple Species): Rat - % Remaining after 30 min w/NADPH [7] [%] | Liver Microsome Stability (Multiple Species): Mouse - % Remaining after 30 min w/NADPH [8] [%] | Liver Microsome Stability (Multiple Species): Human - % Remaining after 30 min w/NADPH [9] [%] | Liver Microsome Stability (Multiple Species): Monkey - % Remaining after 30 min w/NADPH [10] [%] | SMILES | 24 hr Dox Inducible TNFaFLGluc 293FRT/TO: TNF/PD1 [2] | 24 hr Dox Inducible IL2FLGluc 293FRT/TO: IL2/PD1 [4] |
| --- | --- | --- | --- | --- | --- | --- | --- | --- | --- | --- | --- | --- |
| 0.0234 | 4.85 | 0.409 | 0.53 | 7.34 | > 25 | 35.4 | 28.6 | 17.5 | 13.5 | C/C(=C\c1ccc(OC(F)(F)F)cn1)c1csc(NC(=O)c2cccn2Cc2ccncc2)n1 [Compound E2, (E)-1-(pyridin-4-ylmethyl)-N-(4-(1-(5-(trifluoromethoxy)pyridin-2-yl)prop-1-en-2-yl)thiazol-2-yl)-1H-pyrrole-2-carboxamide] | 208 | 23 |
| 0.439 | > 25 | 5.08 | 5.2 | > 25 | > 25 | 0.19 | 0.27 | 0.12 | 0.14 | Cc1nc(CCc2csc(NC(=O)c3cccn3Cc3ccncc3)n2)co1 [Compound E4] | >57.0 | 12 |
| 0.125 | > 25 | 1.06 | 1.23 | 8.09 | 19.6 | 46.1 | 16.7 | 5.77 | 2.47 | C/C(=C\c1csc(NC(=O)c2cccn2Cc2ccncc2)n1)c1ccc(OC(F)(F)F)cn1 [Compound E5, (E)-1-(pyridin-4-ylmethyl)-N-(4-(2-(5-(trifluoromethoxy)pyridin-2-yl)prop-1-en-1-yl)thiazol-2-yl)-1H-pyrrole-2-carboxamide] | >199 | 9.8 |
| 0.158 | 2.76 | 0.947 | 1.19 | > 25 | > 25 | 0.28 | 0.38 | 0.1 | 0.23 | O=C(Nc1nc(CCc2ccc(OC(F)(F)F)cn2)cs1)c1cccn1Cc1ccncc1 [Compound E7, 1-(pyridin-4-ylmethyl)-N-(4-(2-(5-(trifluoromethoxy)pyridin-2-yl)ethyl)thiazol-2-yl)-1H-pyrrole-2-carboxamide] | 17.4 | 7.5 |
| 0.695 | > 25 | 4.96 | 5.05 | > 25 | > 25 | 2.86 | 0.6 | 0.01 | 0.02 | O=C(Nc1nc(CCc2ccccn2)cs1)c1cccn1Cc1ccncc1 [Compound E8, N-(4-(2-(pyridin-2-yl)ethyl)thiazol-2-yl)-1-(pyridin-4-ylmethyl)-1H-pyrrole-2-carboxamide] | >35.9 | 7.3 |

Source: US20230286973A1, “PROTEIN SECRETION INHIBITORS” (KEZAR LIFE SCIENCES, priority 2020, published 2023)
